Results: ChEMBL document CHEMBL5108027, “An unanticipated discovery of novel naphthalimidopropanediols as potential broad-spectrum antibacterial members” (Eur J Med Chem, 2022)
Converted amounts (≈) assume the structure as drawn.

Legend:
Type in all cases: functional
Enterococcus faecalis = assay: Antibacterial activity against Enterococcus faecalis measured by Muller-Hinton broth based microdilution assay
Pseudomonas aeruginosa [1] = assay: Antibacterial activity against Pseudomonas aeruginosa measured by Muller-Hinton broth based microdilution assay
Pseudomonas aeruginosa [2] = assay: Antibacterial activity against Pseudomonas aeruginosa ATCC 27853 measured by Muller-Hinton broth based microdilution assay
Escherichia coli [3] = assay: Antibacterial activity against Escherichia coli ATCC 25922 measured by Muller-Hinton broth based microdilution assay
Staphylococcus aureus [4] = assay: Antibacterial activity against Staphylococcus aureus ATCC 29213 measured by Muller-Hinton broth based microdilution assay
Acinetobacter baumannii = assay: Antibacterial activity against Acinetobacter baumannii measured by Muller-Hinton broth based microdilution assay
Staphylococcus aureus [5] = assay: Antibacterial activity against Staphylococcus aureus measured by Muller-Hinton broth based microdilution assay
Staphylococcus aureus [6] = assay: Antibacterial activity against methicillin-resistant Staphylococcus aureus N315 measured by Muller-Hinton broth based microdilution assay
Escherichia coli [7] = assay: Antibacterial activity against Escherichia coli measured by Muller-Hinton broth based microdilution assay
Klebsiella pneumoniae = assay: Antibacterial activity against Klebsiella pneumoniae measured by Muller-Hinton broth based microdilution assay
Staphylococcus aureus [8] = assay: Antibacterial activity against Staphylococcus aureus ATCC 25923 measured by Muller-Hinton broth based microdilution assay

`C#CCn1cc(/C=N/Nc2ccc3c4c(cccc24)C(=O)N(C(CO)CO)C3=O)c2ccccc21` gave an MIC (Enterococcus faecalis) of 16 µg/mL (≈ 34.3 µM), an MIC (Pseudomonas aeruginosa [1]) of 32 µg/mL (≈ 68.6 µM) and an MIC (Pseudomonas aeruginosa [2]) of 4 µg/mL (≈ 8.57 µM). It also gave an MIC (Escherichia coli [3]) of 16 µg/mL (≈ 34.3 µM), an MIC (Staphylococcus aureus [4]) of 1 µg/mL (≈ 2.14 µM) and an MIC (Acinetobacter baumannii) of 16 µg/mL (≈ 34.3 µM). The MIC (Staphylococcus aureus [5]) was 0.5 µg/mL (≈ 1.07 µM), the MIC (Staphylococcus aureus [6]) was 8 µg/mL (≈ 17.1 µM) and the MIC (Escherichia coli [7]) was 64 µg/mL (≈ 137 µM). For the same compound, the MIC (Klebsiella pneumoniae) was 4 µg/mL (≈ 8.57 µM) and the MIC (Staphylococcus aureus [8]) was 8 µg/mL (≈ 17.1 µM).

`CCCCCCCCn1cc(/C=N/Nc2ccc3c4c(cccc24)C(=O)N(C(CO)CO)C3=O)c2ccccc21` gave an MIC (Enterococcus faecalis) of 64 µg/mL (≈ 118 µM), an MIC (Pseudomonas aeruginosa [1]) of 128 µg/mL (≈ 237 µM) and an MIC (Pseudomonas aeruginosa [2]) of 64 µg/mL (≈ 118 µM). For the same compound, the MIC (Escherichia coli [3]) was 128 µg/mL (≈ 237 µM), the MIC (Staphylococcus aureus [4]) was 64 µg/mL (≈ 118 µM) and the MIC (Acinetobacter baumannii) was 64 µg/mL (≈ 118 µM). It also gave an MIC (Staphylococcus aureus [5]) of 32 µg/mL (≈ 59.2 µM), an MIC (Staphylococcus aureus [6]) of 64 µg/mL (≈ 118 µM) and an MIC (Escherichia coli [7]) of 32 µg/mL (≈ 59.2 µM). It also gave an MIC (Klebsiella pneumoniae) of 16 µg/mL (≈ 29.6 µM) and an MIC (Staphylococcus aureus [8]) of 16 µg/mL (≈ 29.6 µM).

`Cc1ccc(/C=N/Nc2ccc3c4c(cccc24)C(=O)N(C(CO)CO)C3=O)cc1` was tested, and the MIC (Enterococcus faecalis) was 64 µg/mL (≈ 159 µM), the MIC (Pseudomonas aeruginosa [1]) was 64 µg/mL (≈ 159 µM) and the MIC (Pseudomonas aeruginosa [2]) was 1 µg/mL (≈ 2.48 µM). It also gave an MIC (Escherichia coli [3]) of 32 µg/mL (≈ 79.3 µM), an MIC (Staphylococcus aureus [4]) of 4 µg/mL (≈ 9.91 µM) and an MIC (Acinetobacter baumannii) of 64 µg/mL (≈ 159 µM). The MIC (Staphylococcus aureus [5]) was 0.5 µg/mL (≈ 1.24 µM), the MIC (Staphylococcus aureus [6]) was 16 µg/mL (≈ 39.7 µM) and the MIC (Escherichia coli [7]) was 64 µg/mL (≈ 159 µM). The MIC (Klebsiella pneumoniae) was 8 µg/mL (≈ 19.8 µM) and the MIC (Staphylococcus aureus [8]) was 32 µg/mL (≈ 79.3 µM).

Compound `O=C1c2cccc3c(N/N=C/c4ccccc4)ccc(c23)C(=O)N1C(CO)CO` has an MIC (Enterococcus faecalis) of 64 µg/mL (≈ 164 µM), an MIC (Pseudomonas aeruginosa [1]) of 1 µg/mL (≈ 2.57 µM) and an MIC (Pseudomonas aeruginosa [2]) of 32 µg/mL (≈ 82.2 µM). It also gave an MIC (Escherichia coli [3]) of 64 µg/mL (≈ 164 µM), an MIC (Staphylococcus aureus [4]) of 32 µg/mL (≈ 82.2 µM) and an MIC (Acinetobacter baumannii) of 64 µg/mL (≈ 164 µM). The MIC (Staphylococcus aureus [5]) was 64 µg/mL (≈ 164 µM), the MIC (Staphylococcus aureus [6]) was 64 µg/mL (≈ 164 µM) and the MIC (Escherichia coli [7]) was 128 µg/mL (≈ 329 µM). It also gave an MIC (Klebsiella pneumoniae) of 16 µg/mL (≈ 41.1 µM) and an MIC (Staphylococcus aureus [8]) of 2 µg/mL (≈ 5.14 µM).

`CCCCc1nc(Cl)c(/C=N/Nc2ccc3c4c(cccc24)C(=O)N(C(CO)CO)C3=O)[nH]1` was tested, and the MIC (Enterococcus faecalis) was 32 µg/mL (≈ 68.1 µM), the MIC (Pseudomonas aeruginosa [1]) was 64 µg/mL (≈ 136 µM) and the MIC (Pseudomonas aeruginosa [2]) was 8 µg/mL (≈ 17 µM). For the same compound, the MIC (Escherichia coli [3]) was 32 µg/mL (≈ 68.1 µM), the MIC (Staphylococcus aureus [4]) was 32 µg/mL (≈ 68.1 µM) and the MIC (Acinetobacter baumannii) was 64 µg/mL (≈ 136 µM). It also gave an MIC (Staphylococcus aureus [5]) of 32 µg/mL (≈ 68.1 µM), an MIC (Staphylococcus aureus [6]) of 64 µg/mL (≈ 136 µM) and an MIC (Escherichia coli [7]) of 16 µg/mL (≈ 34 µM). For the same compound, the MIC (Klebsiella pneumoniae) was 8 µg/mL (≈ 17 µM) and the MIC (Staphylococcus aureus [8]) was 64 µg/mL (≈ 136 µM).

`O=C1c2cccc3c(N/N=C/c4ccc(O)c([N+](=O)[O-])c4)ccc(c23)C(=O)N1C(CO)CO` showed an MIC (Enterococcus faecalis) of 16 µg/mL (≈ 35.5 µM), an MIC (Pseudomonas aeruginosa [1]) of 32 µg/mL (≈ 71 µM) and an MIC (Pseudomonas aeruginosa [2]) of 8 µg/mL (≈ 17.8 µM). It also gave an MIC (Escherichia coli [3]) of 32 µg/mL (≈ 71 µM), an MIC (Staphylococcus aureus [4]) of 8 µg/mL (≈ 17.8 µM) and an MIC (Acinetobacter baumannii) of 32 µg/mL (≈ 71 µM). For the same compound, the MIC (Staphylococcus aureus [5]) was 4 µg/mL (≈ 8.88 µM), the MIC (Staphylococcus aureus [6]) was 64 µg/mL (≈ 142 µM) and the MIC (Escherichia coli [7]) was 32 µg/mL (≈ 71 µM). For the same compound, the MIC (Klebsiella pneumoniae) was 4 µg/mL (≈ 8.88 µM) and the MIC (Staphylococcus aureus [8]) was 4 µg/mL (≈ 8.88 µM).

With `COc1cc(/C=N/Nc2ccc3c4c(cccc24)C(=O)N(C(CO)CO)C3=O)ccc1O` the MIC (Enterococcus faecalis) was 8 µg/mL (≈ 18.4 µM), the MIC (Pseudomonas aeruginosa [1]) was 64 µg/mL (≈ 147 µM) and the MIC (Pseudomonas aeruginosa [2]) was 8 µg/mL (≈ 18.4 µM). It also gave an MIC (Escherichia coli [3]) of 16 µg/mL (≈ 36.7 µM), an MIC (Staphylococcus aureus [4]) of 16 µg/mL (≈ 36.7 µM) and an MIC (Acinetobacter baumannii) of 64 µg/mL (≈ 147 µM). For the same compound, the MIC (Staphylococcus aureus [5]) was 16 µg/mL (≈ 36.7 µM), the MIC (Staphylococcus aureus [6]) was 64 µg/mL (≈ 147 µM) and the MIC (Escherichia coli [7]) was 64 µg/mL (≈ 147 µM). For the same compound, the MIC (Klebsiella pneumoniae) was 4 µg/mL (≈ 9.19 µM) and the MIC (Staphylococcus aureus [8]) was 64 µg/mL (≈ 147 µM).

With `O=C1c2cccc3c(N/N=C/c4ccc([N+](=O)[O-])cc4)ccc(c23)C(=O)N1C(CO)CO` the MIC (Enterococcus faecalis) was 1 µg/mL (≈ 2.3 µM), the MIC (Pseudomonas aeruginosa [1]) was 16 µg/mL (≈ 36.8 µM) and the MIC (Pseudomonas aeruginosa [2]) was 16 µg/mL (≈ 36.8 µM). It also gave an MIC (Escherichia coli [3]) of 32 µg/mL (≈ 73.7 µM), an MIC (Staphylococcus aureus [4]) of 64 µg/mL (≈ 147 µM) and an MIC (Acinetobacter baumannii) of 64 µg/mL (≈ 147 µM). It also gave an MIC (Staphylococcus aureus [5]) of 2 µg/mL (≈ 4.6 µM), an MIC (Staphylococcus aureus [6]) of 64 µg/mL (≈ 147 µM) and an MIC (Escherichia coli [7]) of 32 µg/mL (≈ 73.7 µM). For the same compound, the MIC (Klebsiella pneumoniae) was 32 µg/mL (≈ 73.7 µM) and the MIC (Staphylococcus aureus [8]) was 2 µg/mL (≈ 4.6 µM).

`O=C1c2cccc3c(N/N=C/c4ccc(O)cc4O)ccc(c23)C(=O)N1C(CO)CO` gave an MIC (Enterococcus faecalis) of 16 µg/mL (≈ 38 µM), an MIC (Pseudomonas aeruginosa [1]) of 64 µg/mL (≈ 152 µM) and an MIC (Pseudomonas aeruginosa [2]) of 32 µg/mL (≈ 75.9 µM). It also gave an MIC (Escherichia coli [3]) of 32 µg/mL (≈ 75.9 µM), an MIC (Staphylococcus aureus [4]) of 64 µg/mL (≈ 152 µM) and an MIC (Acinetobacter baumannii) of 64 µg/mL (≈ 152 µM). For the same compound, the MIC (Staphylococcus aureus [5]) was 16 µg/mL (≈ 38 µM), the MIC (Staphylococcus aureus [6]) was 16 µg/mL (≈ 38 µM) and the MIC (Escherichia coli [7]) was 64 µg/mL (≈ 152 µM). The MIC (Klebsiella pneumoniae) was 4 µg/mL (≈ 9.49 µM) and the MIC (Staphylococcus aureus [8]) was 16 µg/mL (≈ 38 µM).

`O=C1c2cccc3c(N/N=C/c4ccc(Cl)cc4Cl)ccc(c23)C(=O)N1C(CO)CO` was tested, and the MIC (Enterococcus faecalis) was 64 µg/mL (≈ 140 µM), the MIC (Pseudomonas aeruginosa [1]) was 128 µg/mL (≈ 279 µM) and the MIC (Pseudomonas aeruginosa [2]) was 128 µg/mL (≈ 279 µM). The MIC (Escherichia coli [3]) was 256 µg/mL (≈ 559 µM), the MIC (Staphylococcus aureus [4]) was 8 µg/mL (≈ 17.5 µM) and the MIC (Acinetobacter baumannii) was 128 µg/mL (≈ 279 µM). For the same compound, the MIC (Staphylococcus aureus [5]) was 32 µg/mL (≈ 69.8 µM), the MIC (Staphylococcus aureus [6]) was 32 µg/mL (≈ 69.8 µM) and the MIC (Escherichia coli [7]) was 256 µg/mL (≈ 559 µM). It also gave an MIC (Klebsiella pneumoniae) of 128 µg/mL (≈ 279 µM) and an MIC (Staphylococcus aureus [8]) of 8 µg/mL (≈ 17.5 µM).

`O=C1c2cccc3c(N/N=C/c4csc5ccccc45)ccc(c23)C(=O)N1C(CO)CO` gave an MIC (Enterococcus faecalis) of 64 µg/mL (≈ 144 µM), an MIC (Pseudomonas aeruginosa [1]) of 64 µg/mL (≈ 144 µM) and an MIC (Pseudomonas aeruginosa [2]) of 64 µg/mL (≈ 144 µM). It also gave an MIC (Escherichia coli [3]) of 64 µg/mL (≈ 144 µM), an MIC (Staphylococcus aureus [4]) of 128 µg/mL (≈ 287 µM) and an MIC (Acinetobacter baumannii) of 64 µg/mL (≈ 144 µM). It also gave an MIC (Staphylococcus aureus [5]) of 64 µg/mL (≈ 144 µM), an MIC (Staphylococcus aureus [6]) of 64 µg/mL (≈ 144 µM) and an MIC (Escherichia coli [7]) of 32 µg/mL (≈ 71.8 µM). The MIC (Klebsiella pneumoniae) was 32 µg/mL (≈ 71.8 µM) and the MIC (Staphylococcus aureus [8]) was 64 µg/mL (≈ 144 µM).
